PubChem BioAssay AID198 (DTP/NCI, 2004)
Where “and” joins values, the source holds several entries; their conditions need not be identical. Equal values may be shown once. Inconclusive results and toxic doses are left out. The calls were made as follows: active = survival T/C of 150% or more; inactive = T/C below 125% in these data.

System: B16 melanoma ip, C57BL/6 mice, median survival T/C
Experiment: NCI In Vivo Anticancer Drug Screen. Data for tumor model B16 Melanoma (intraperitoneal) in C57BL/6 mice
Conditions: endpoint: median survival time, higher = longer survival
Experimental: The antitumor activity of compounds was measured in mice bearing transplantable tumors. Survival or tumor size were measured and the results are expressed as the measurement made in the treated group (T) divided by the measurement made in the vehicle treated control group (C). The tumor model used in this assay is B16 Melanoma (intraperitoneal) in C57BL/6 mice

[1] = dose: 100.0 mg/kg/injection, schedule: Q01DX009 (ip), vehicle: saline with Tween-80
[2] = dose: 50.0 mg/kg/injection, schedule: Q01DX009 (ip), vehicle: saline
[3] = dose: 100.0 mg/kg/injection, schedule: Q01DX009 (ip), vehicle: saline
[4] = dose: 200.0 mg/kg/injection, schedule: Q01DX009 (ip), vehicle: saline
[5] = dose: 3.13 mg/kg/injection, schedule: Q01DX009 (ip), vehicle: saline
[6] = dose: 6.25 mg/kg/injection, schedule: Q01DX009 (ip), vehicle: saline
[7] = dose: 10.0 mg/kg/injection, schedule: Q01DX009 (ip), vehicle: saline
[8] = dose: 20.0 mg/kg/injection, schedule: Q01DX009 (ip), vehicle: saline
[9] = dose: 125.0 mg/kg/injection, schedule: Q01DX009 (ip), vehicle: saline
[10] = dose: 250.0 mg/kg/injection, schedule: Q01DX009 (ip), vehicle: saline
[11] = dose: 500.0 mg/kg/injection, schedule: Q01DX009 (ip), vehicle: saline
[12] = dose: 200.0 mg/kg/injection, schedule: Q01DX009 (ip), vehicle: saline with Tween-80
[13] = dose: 400.0 mg/kg/injection, schedule: Q01DX009 (ip), vehicle: saline with Tween-80
[14] = dose: 1.25 mg/kg/injection, schedule: Q01DX009 (ip), vehicle: saline
[15] = dose: 25.0 mg/kg/injection, schedule: Q01DX009 (ip), vehicle: saline
[16] = dose: 12.5 mg/kg/injection, schedule: Q01DX009 (ip), vehicle: saline
[17] = dose: 75.0 mg/kg/injection, schedule: Q01DX009 (ip), vehicle: saline
[18] = dose: 150.0 mg/kg/injection, schedule: Q01DX009 (ip), vehicle: saline
[19] = dose: 300.0 mg/kg/injection, schedule: Q01DX009 (ip), vehicle: saline

Measured: T/C

CCN(CC)CCOc1ccc2c(c1)C(=O)c1cc(OCCN(CC)CC)ccc1-2
inactive: dose: 25.0 mg/kg/injection, schedule: Q01DX009 (ip), vehicle: saline with Tween-80 103 % of control | dose: 50.0 mg/kg/injection, schedule: Q01DX009 (ip), vehicle: saline with Tween-80 92 % of control | [1] 114 % of control

CO[C@H](C(=O)[C@@H](O)[C@@H](C)O)[C@@H]1Cc2cc3cc(OC4CC(OC5CC(O)C(O)C(C)O5)C(O)C(C)O4)c(C)c(O)c3c(O)c2C(=O)[C@H]1OC1CC(OC2CC(OC3CC(C)(O)C(O)C(C)O3)C(O)C(C)O2)C(O)C(C)O1 (stereo partly drawn)
inactive: dose: 0.25 mg/kg/injection, schedule: Q01DX009 (ip), vehicle: saline 106 % of control | dose: 0.5 mg/kg/injection, schedule: Q01DX009 (ip), vehicle: saline 100 % of control | dose: 1.0 mg/kg/injection, schedule: Q01DX009 (ip), vehicle: saline 113 % of control

COc1cc2c(cc1OC)C(c1cc(OC)c(OC)c(OC)c1)C1(O)C(=O)OCC1(O)C2 (stereo not drawn)
inactive: [2] 93 % of control | [3] 93 % of control | [4] 86 % of control | dose: 400.0 mg/kg/injection, schedule: Q01DX009 (ip), vehicle: saline 86 % of control

CCCCc1ccc(NC(=O)N(CCCl)N=O)cc1
active: [5] 200 % of control | [6] 210 % of control

COc1ccc(-c2c(C)c(C(=O)O)nc(-c3ccc4c(O)c(OC)c5c(c4n3)=NC(C)(C)N=5)c2N)c(O)c1OC
inactive: [7] 124 % of control | [8] 107 % of control

CNNCc1ccc(C(=O)NC(C)C)cc1
inactive: [2] 121 % of control | [3] 121 % of control | [4] 110 % of control and 121 % of control

CO[C@H]1/C=C/O[C@@]2(C)Oc3c(C)c(O)c4c(O)c(c(/C=N/N5CCN(C)CC5)c(O)c4c3C2=O)NC(=O)/C(C)=C\C=C\[C@H](C)[C@H](O)[C@@H](C)[C@@H](O)[C@@H](C)[C@H](OC(C)=O)[C@@H]1C
inactive: [2] 106 % of control | [3] 109 % of control | [4] 112 % of control

COC(N)=O
inactive: dose: 62.5 mg/kg/injection, schedule: Q01DX009 (ip), vehicle: saline 100 % of control and 107 % of control | [9] 103 % of control and 106 % of control | [10] 100 % of control and 107 % of control | [11] 110 % of control

Nc1nc(CCl)nc(Nc2ccccc2)n1
inactive: [1] 96 % of control | [12] 100 % of control

O=C(O)CCCCSc1ncnc2nc[nH]c12
inactive: [1] 110 % of control | [12] 103 % of control | [13] 114 % of control

CC1=C2C(=CC(C)(C)[C@@H]2O)C(=O)[C@](C)(O)C12CC2
inactive: dose: 0.17 mg/kg/injection, schedule: Q01DX009 (ip), vehicle: saline 110 % of control | dose: 0.26 mg/kg/injection, schedule: Q01DX009 (ip), vehicle: saline 106 % of control | dose: 0.4 mg/kg/injection, schedule: Q01DX009 (ip), vehicle: saline 106 % of control | dose: 0.6 mg/kg/injection, schedule: Q01DX009 (ip), vehicle: saline 106 % of control

O=c1[nH]c(=O)n(C2CC(O)C(CO)O2)cc1F (stereo not drawn)
active: dose: 80.0 mg/kg/injection, schedule: Q01DX009 (ip), vehicle: saline 154 % of control | dose: 160.0 mg/kg/injection, schedule: Q01DX009 (ip), vehicle: saline 151 % of control
inactive: [7] 113 % of control | [8] 120 % of control | dose: 40.0 mg/kg/injection, schedule: Q01DX009 (ip), vehicle: saline 123 % of control

Nc1ncnc2c1ccn2C1OC(CO)C(O)C1O (stereo not drawn)
inactive: dose: 0.32 mg/kg/injection, schedule: Q01DX009 (ip), vehicle: saline 93 % of control | dose: 0.63 mg/kg/injection, schedule: Q01DX009 (ip), vehicle: saline 96 % of control | [14] 100 % of control

CN(C)/N=N/c1nc[nH]c1C(N)=O
inactive: [15] 116 % of control | [2] 120 % of control
active: [3] 150 % of control

C/C(=C\COc1ccc2ccc(=O)oc2c1)C1=CC(=O)C(C)(C)O1
inactive: [1] 94 % of control | [12] 100 % of control | [13] 94 % of control

CCSCCC(N)C(=O)O (stereo not drawn)
inactive: [2] 100 % of control | [3] 100 % of control | [4] 90 % of control

O=CC(S)CO (stereo not drawn)
inactive: [15] 120 % of control | [2] 120 % of control

CC(=O)[C@@]1(O)CC[C@H]2[C@@H]3C[C@H](C)C4=CC(=O)C=C[C@]4(C)[C@@]3(F)[C@@H](O)C[C@@]21C
inactive: [16] 105 % of control | dose: 12.5 mg/kg/injection, schedule: Q01DX009 (sc), vehicle: steriod suspending solution 106 % of control | [15] 105 % of control | dose: 25.0 mg/kg/injection, schedule: Q01DX009 (sc), vehicle: steriod suspending solution 103 % of control | [2] 100 % of control | [3] 100 % of control

COc1cc(N(CCCl)CCCl)ccc1NC(=O)c1ccccc1
inactive: dose: 1.56 mg/kg/injection, schedule: Q01DX009 (ip), vehicle: saline 102 % of control | [5] 115 % of control | [6] 115 % of control

CN(C)c1nc(N(C)C)nc(N(C)C)n1
inactive: dose: 37.5 mg/kg/injection, schedule: Q01DX009 (ip), vehicle: saline 100 % of control | [17] 103 % of control | [18] 103 % of control | [19] 103 % of control

CCCC/C=C/CCCCCCCC(=O)OCCCCCCCCCCCCCCCC
inactive: dose: 400.0 mg/kg/injection, schedule: Q01DX001 (ip), vehicle: saline with Tween-80 86 % of control

CN[C@H]1CCc2cc(OC)c(OC)c(OC)c2-c2ccc(OC)c(=O)cc21
inactive: [14] 100 % of control | dose: 1.3 mg/kg/injection, schedule: Q01DX009 (ip), vehicle: saline 100 % of control | dose: 2.5 mg/kg/injection, schedule: Q01DX009 (ip), vehicle: saline 100 % of control and 103 % of control | dose: 5.0 mg/kg/injection, schedule: Q01DX009 (ip), vehicle: saline 93 % of control and 113 % of control | [7] 93 % of control

NC(=O)Oc1cc(OC(N)=O)cc(N(CCCl)CCCl)c1
inactive: [16] 110 % of control | [2] 123 % of control

CS(=O)(=O)OCCCCOS(C)(=O)=O
inactive: dose: 3.12 mg/kg/injection, schedule: Q01DX009 (ip), vehicle: saline 103 % of control | [6] 96 % of control | [16] 106 % of control | [15] 103 % of control

CN(C)CC(=O)c1ccc(O)c(O)c1
inactive: [17] 112 % of control | [18] 109 % of control | [19] 115 % of control | dose: 600.0 mg/kg/injection, schedule: Q01DX009 (ip), vehicle: saline 121 % of control

COc1cc(NS(C)(=O)=O)ccc1Nc1c2ccccc2nc2ccccc12
active: dose: 0.5 mg/kg/injection, schedule: Q01DX009 (ip), vehicle: water 160 % of control | dose: 1.0 mg/kg/injection, schedule: Q01DX009 (ip), vehicle: Klucel (hydroxypropylcellulose) (HPC) 172 % of control | dose: 2.0 mg/kg/injection, schedule: Q01DX009 (ip), vehicle: Klucel (hydroxypropylcellulose) (HPC) 179 % of control | dose: 2.0 mg/kg/injection, schedule: Q01DX009 (ip), vehicle: water 222 % of control | dose: 4.0 mg/kg/injection, schedule: Q01DX009 (ip), vehicle: water 246 % of control

O=NN(CCF)C(=O)NC1CCS(=O)(=O)CC1
active: dose: 7.5 mg/kg/injection, schedule: Q01DX001 (ip), vehicle: saline 212 % of control | dose: 15.0 mg/kg/injection, schedule: Q01DX001 (ip), vehicle: saline 200 % of control | dose: 30.0 mg/kg/injection, schedule: Q01DX001 (ip), vehicle: saline 175 % of control

CCOC(N)=O
inactive: [9] 100 % of control | [10] 107 % of control | [11] 100 % of control

CN(Cc1cnc2nc(N)nc(N)c2n1)c1ccc(C(=O)N[C@@H](CCC(=O)O)C(=O)O)cc1
inactive: dose: 0.38 mg/kg/injection, schedule: Q01DX009 (ip), vehicle: saline 100 % of control and 106 % of control | dose: 0.75 mg/kg/injection, schedule: Q01DX009 (ip), vehicle: saline 100 % of control and 106 % of control | dose: 1.5 mg/kg/injection, schedule: Q01DX009 (ip), vehicle: saline 93 % of control and 100 % of control | dose: 3.0 mg/kg/injection, schedule: Q01DX009 (ip), vehicle: saline 100 % of control

COc1cc([C@@H]2c3cc4c(cc3C[C@H]3COC(=O)[C@@H]32)OCO4)cc(OC)c1OC
inactive: dose: 6.25 mg/kg/injection, schedule: Q01DX009 (ip), vehicle: saline with Tween-80 110 % of control | dose: 12.5 mg/kg/injection, schedule: Q01DX009 (ip), vehicle: saline with Tween-80 117 % of control
